Data taken from patent publication US20230286970A1, “NOVEL OXADIAZOLE-BASED SELECTIVE HDAC6 INHIBITORS” (ITALFARMACO S.P.A., priority 2020, published 2023).

What was measured:
recombinant human HDAC6 = recombinant human HDAC6 (Homo sapiens (Human), UniProt Q9UBN7); experiment: Enzymatic screening, HDAC6 inhibition (fluorogenic FdL_G substrate); type: biochemical
Method in brief: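 Enzyme was preincubated with compound (8 doses, triplicate, 1% DMSO) in 25 mM Tris-HCl pH 8, 130 mM NaCl, 0.05% Tween-20, 10% glycerol, with BSA. A FLUOR DE LYS-Green substrate was then added, and fluorescence was read after developer plus 2 μM TSA.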

recombinant human HDAC1 = recombinant human HDAC1 (Homo sapiens (Human), UniProt Q13547); experiment: Enzymatic screening, HDAC1 inhibition (fluorogenic FdL_G substrate); type: biochemical
recombinant human HDAC1, sequence (Q13547 whole entry): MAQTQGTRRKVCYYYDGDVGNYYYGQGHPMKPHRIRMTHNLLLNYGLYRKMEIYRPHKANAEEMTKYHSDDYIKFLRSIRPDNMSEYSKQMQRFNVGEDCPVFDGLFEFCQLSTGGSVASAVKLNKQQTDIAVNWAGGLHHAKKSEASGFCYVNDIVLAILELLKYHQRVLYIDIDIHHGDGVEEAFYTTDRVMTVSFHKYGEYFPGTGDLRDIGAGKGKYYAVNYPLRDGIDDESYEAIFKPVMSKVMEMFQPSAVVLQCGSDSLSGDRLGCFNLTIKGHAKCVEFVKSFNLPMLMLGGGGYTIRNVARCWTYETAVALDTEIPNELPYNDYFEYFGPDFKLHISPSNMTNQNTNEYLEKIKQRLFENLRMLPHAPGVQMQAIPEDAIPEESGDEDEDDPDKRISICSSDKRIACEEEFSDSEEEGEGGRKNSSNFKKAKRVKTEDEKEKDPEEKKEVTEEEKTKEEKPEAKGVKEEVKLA
Method in brief: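 Recombinant human HDAC1 inhibition was measured fluorometrically using the FLUOR DE LYS-Green (FdL_G) substrate. Compounds at 8 doses (1% DMSO final) in Tris-HCl pH 8 buffer with NaCl, Tween-20 and glycerol were preincubated in triplicate with enzyme and 1 mg/mL BSA, then given substrate. Developer I plus 2 μM TSA was added, and fluorescence read after 25 minutes in the dark.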

recombinant human HDAC6, sequence (Q9UBN7 whole entry): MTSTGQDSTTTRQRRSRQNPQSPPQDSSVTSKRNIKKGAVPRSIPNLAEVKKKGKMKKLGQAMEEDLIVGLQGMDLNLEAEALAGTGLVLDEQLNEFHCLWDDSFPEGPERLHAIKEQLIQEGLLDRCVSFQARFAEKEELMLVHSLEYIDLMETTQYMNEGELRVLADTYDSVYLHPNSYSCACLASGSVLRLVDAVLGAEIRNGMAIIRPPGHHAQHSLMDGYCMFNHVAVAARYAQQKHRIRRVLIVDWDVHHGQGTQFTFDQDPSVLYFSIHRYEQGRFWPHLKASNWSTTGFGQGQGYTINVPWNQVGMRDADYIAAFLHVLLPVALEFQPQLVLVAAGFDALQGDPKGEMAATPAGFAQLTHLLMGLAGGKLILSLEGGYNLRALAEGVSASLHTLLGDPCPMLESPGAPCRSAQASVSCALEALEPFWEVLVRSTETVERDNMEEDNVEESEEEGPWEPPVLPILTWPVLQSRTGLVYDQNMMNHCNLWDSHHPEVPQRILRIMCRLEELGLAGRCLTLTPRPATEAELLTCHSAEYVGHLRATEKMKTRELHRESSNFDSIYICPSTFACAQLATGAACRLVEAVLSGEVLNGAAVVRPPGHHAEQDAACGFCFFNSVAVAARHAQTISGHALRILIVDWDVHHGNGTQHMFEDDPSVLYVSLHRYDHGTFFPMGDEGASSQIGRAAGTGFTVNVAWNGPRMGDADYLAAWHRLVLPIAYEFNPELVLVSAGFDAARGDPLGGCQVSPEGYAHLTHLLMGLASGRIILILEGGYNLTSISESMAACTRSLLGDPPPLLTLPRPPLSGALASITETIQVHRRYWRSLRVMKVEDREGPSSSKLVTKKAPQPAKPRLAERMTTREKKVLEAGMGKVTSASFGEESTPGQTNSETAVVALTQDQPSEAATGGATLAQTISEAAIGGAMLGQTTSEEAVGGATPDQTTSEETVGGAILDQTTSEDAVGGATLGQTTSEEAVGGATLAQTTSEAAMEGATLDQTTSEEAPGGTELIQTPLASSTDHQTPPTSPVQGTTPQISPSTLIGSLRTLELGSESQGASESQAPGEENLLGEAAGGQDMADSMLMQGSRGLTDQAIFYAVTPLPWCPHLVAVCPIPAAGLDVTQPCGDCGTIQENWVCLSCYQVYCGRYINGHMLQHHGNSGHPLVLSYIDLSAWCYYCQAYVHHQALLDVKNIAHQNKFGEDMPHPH

Structure (SMILES)	IC50 (recombinant human HDAC6) [µM]	IC50 (recombinant human HDAC1) [µM]
Fc1cc(-c2nnc(C(F)F)o2)cc(F)c1Cn1cc(-c2ccc(CN3CC(C(F)(F)F)C3)cc2)nn1 [compound 214, 2-(3,5-difluoro-4-((4-(4-((3-(trifluoromethyl)azetidin-1-yl)methyl)phenyl)-1H-1,2,3-triazol-1-yl)methyl)phenyl)-5-(difluoromethyl)-1,3,4-oxadiazole]	0.151	> 200
CN(Cc1ccncc1)Cc1ccc(-c2cn(Cc3ccc(-c4nnc(C(F)F)o4)cc3)nn2)cc1 [compound 282, N-(4-(1-(4-(5-(difluoromethyl)-1,3,4-oxadiazol-2-yl)benzyl)-1H-1,2,3-triazol-4-yl)benzyl)-N-methyl-1-(pyridin-4-yl)methanamine]	0.282	> 200
O=C1NCc2cc(-c3nnn(Cc4ccc(-c5nnc(C(F)F)o5)cc4)n3)ccc21 [compound 167, 5-(2-(4-(5-(difluoromethyl)-1,3,4-oxadiazol-2-yl)benzyl)-2H-tetrazol-5-yl)isoindolin-1-one]	0.079	> 200
CCNc1ncc2cc(-c3cn(Cc4ccc(-c5nnc(C(F)F)o5)c(F)c4)nn3)ccc2n1 [compound 395, 6-(1-(4-(5-(difluoromethyl)-1,3,4-oxadiazol-2-yl)-3-fluorobenzyl)-1H-1,2,3-triazol-4-yl)-N-ethylquinazolin-2-amine]	0.857	1000
Cn1c(N)nc2cc(-c3cnn(Cc4ccc(-c5nnc(C(F)F)o5)cc4)c3)ccc21 [compound 321, 5-[1-[[4-[5-(difluoromethyl)-1,3,4-oxadiazol-2-yl]phenyl]methyl]pyrazol-4-yl]-1-methylbenzimidazol-2-amine]	0.098	> 1000

Now those with a lower IC50 (recombinant human HDAC6), led by results:

IC50 (recombinant human HDAC6) [µM]	IC50 (recombinant human HDAC1) [µM]	Structure (SMILES)
0.034	> 200	CC(=O)Nc1cccc(-c2cn(Cc3c(F)cc(-c4nnc(C(F)F)o4)cc3F)nn2)c1 [compound 70, N-(3-(1-(4-(5-(difluoromethyl)-1,3,4-oxadiazol-2-yl)-2,6-difluorobenzyl)-1H-1,2,3-triazol-4-yl)phenyl)acetamide]
0.032	> 1000	Nc1nc2ccc(-c3cn(Cc4ncc(-c5nnc(C(F)F)o5)cc4F)nn3)cc2s1 [compound 342, 6-[1-[[5-[5-(difluoromethyl)-1,3,4-oxadiazol-2-yl]-3-fluoropyridin-2-yl]methyl]triazol-4-yl]-1,3-benzothiazol-2-amine]
0.064	> 200	O=[N+]([O-])c1ccccc1-c1nnn(Cc2ccc(-c3nnc(C(F)F)o3)cc2)n1 [compound 150, 2-(difluoromethyl)-5-(4-((5-(2-nitrophenyl)-2H-tetrazol-2-yl)methyl)phenyl)-1,3,4-oxadiazole]
0.06	1000	Nc1nccc2cc(-c3nnn(Cc4cc(F)c(-c5nnc(C(F)F)o5)cc4F)n3)ccc12 [compound 396, 6-[2-[[4-[5-(difluoromethyl)-1,3,4-oxadiazol-2-yl]-2,5-difluorophenyl]methyl]tetrazol-5-yl]isoquinolin-1-amine]
0.046	> 200	O=C1Nc2cc(-c3cn(Cc4ccc(-c5nnc(C(F)F)o5)cn4)nn3)ccc2C12CCCC2 [compound 123, 6′-(1-((5-(5-(difluoromethyl)-1,3,4-oxadiazol-2-yl)pyridin-2-yl)methyl)-1H-1,2,3-triazol-4-yl)spiro[cyclopentane-1,3′-indolin]-2′-one]
0.059	> 200	CNc1ccc2cc(-c3cn(Cc4ccc(-c5nnc(C(F)F)o5)cc4)nn3)ccc2n1 [compound 142, 6-(1-(4-(5-(difluoromethyl)-1,3,4-oxadiazol-2-yl)benzyl)-1H-1,2,3-triazol-4-yl)-N-methylquinolin-2-amine]
0.039	> 200	FC(F)c1nnc(-c2ccc(Cn3nnc(-c4ccc(N5CCNCC5)cc4)n3)cc2)o1 [compound 103, 2-(difluoromethyl)-5-(4-((5-(4-(piperazin-1-yl)phenyl)-2H-tetrazol-2-yl)methyl)phenyl)-1,3,4-oxadiazole]
